Test results reported in article PMC6941357, “An in vitro toolbox to accelerate anti-malarial drug discovery and development” (Malaria Journal, 2020).
≈ marks a conversion by molar mass, not a printed value.

Columns and labels:
[1] = system: Caco-2 cell monolayers; test: Bidirectional permeability across Caco-2 cell monolayers; conditions: matrix: pH 7.4 buffer
Procedure, shortened: (§1)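 Donor and acceptor concentrations measured by LC–MS to give Papp, mass balance and efflux ratio (mean B–A over A–B Papp). Media were pH 7.4 HEPES-buffered HBSS or human plasma on both sides; for plasma, Papp used the donor fraction unbound. Donor contained 0.1% v/v DMSO.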

[2] = as above; conditions: human
Procedure, shortened: as §1

[3] = Solubility limited absorbable dose (SLAD) calculation with predicted human jejunal Peff; conditions: for solubility: FaSSIF
Text: Predicted Peff values were obtained from a calibration plot of literature Peff values vs measured Caco-2 Papp using either buffer or plasma as the transport medium (see Results section).

[4] = biological target: CYP3A4 (Homo sapiens, UniProt P08684); test: in vitro
Chain of CYP3A4 (P08684 whole entry, canonical isoform): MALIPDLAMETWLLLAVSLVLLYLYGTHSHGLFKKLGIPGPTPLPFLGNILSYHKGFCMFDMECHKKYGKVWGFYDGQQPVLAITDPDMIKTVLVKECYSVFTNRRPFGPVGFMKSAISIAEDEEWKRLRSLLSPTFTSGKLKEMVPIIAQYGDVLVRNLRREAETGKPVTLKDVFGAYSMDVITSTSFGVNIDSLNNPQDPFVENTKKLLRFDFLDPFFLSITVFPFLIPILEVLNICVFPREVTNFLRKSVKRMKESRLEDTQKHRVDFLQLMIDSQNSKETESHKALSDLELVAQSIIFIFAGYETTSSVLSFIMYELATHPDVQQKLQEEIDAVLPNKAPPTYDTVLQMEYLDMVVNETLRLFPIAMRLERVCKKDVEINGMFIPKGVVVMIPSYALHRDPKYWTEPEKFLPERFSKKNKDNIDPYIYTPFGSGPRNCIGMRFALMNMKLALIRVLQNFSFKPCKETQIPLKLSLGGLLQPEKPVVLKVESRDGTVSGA
Procedure, shortened: (§2)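 LC–MS measurement of the metabolite formed by one CYP isoform from its probe substrate in human liver microsomes, with and without test compound, provided the data. Values are percent inhibition of that metabolic pathway.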

[5] = biological target: T1, CYP1A2 (Homo sapiens, UniProt P05177); test: Cytochrome P450 inhibition in human liver microsomes
T1 sequence (P05177 1-516): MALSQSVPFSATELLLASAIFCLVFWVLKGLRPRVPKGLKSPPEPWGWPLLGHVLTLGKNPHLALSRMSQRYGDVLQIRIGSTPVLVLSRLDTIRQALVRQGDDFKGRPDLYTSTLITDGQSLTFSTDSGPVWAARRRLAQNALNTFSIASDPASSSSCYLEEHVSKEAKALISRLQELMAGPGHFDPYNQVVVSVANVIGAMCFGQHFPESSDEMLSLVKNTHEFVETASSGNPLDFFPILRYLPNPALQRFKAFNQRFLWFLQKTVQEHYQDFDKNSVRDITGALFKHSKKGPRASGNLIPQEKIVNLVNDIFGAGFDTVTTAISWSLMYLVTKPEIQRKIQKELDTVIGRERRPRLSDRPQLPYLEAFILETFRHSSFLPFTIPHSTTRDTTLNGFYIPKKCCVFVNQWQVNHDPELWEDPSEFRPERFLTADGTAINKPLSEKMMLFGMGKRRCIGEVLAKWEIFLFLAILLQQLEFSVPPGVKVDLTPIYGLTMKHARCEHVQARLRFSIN
Procedure, shortened: as §2

[6] = biological target: CYP2C19 (Homo sapiens, UniProt P33261); test: as above; conditions: for inhibition at 20 µM: human, pH 7.4
Chain of CYP2C19 (P33261 whole entry): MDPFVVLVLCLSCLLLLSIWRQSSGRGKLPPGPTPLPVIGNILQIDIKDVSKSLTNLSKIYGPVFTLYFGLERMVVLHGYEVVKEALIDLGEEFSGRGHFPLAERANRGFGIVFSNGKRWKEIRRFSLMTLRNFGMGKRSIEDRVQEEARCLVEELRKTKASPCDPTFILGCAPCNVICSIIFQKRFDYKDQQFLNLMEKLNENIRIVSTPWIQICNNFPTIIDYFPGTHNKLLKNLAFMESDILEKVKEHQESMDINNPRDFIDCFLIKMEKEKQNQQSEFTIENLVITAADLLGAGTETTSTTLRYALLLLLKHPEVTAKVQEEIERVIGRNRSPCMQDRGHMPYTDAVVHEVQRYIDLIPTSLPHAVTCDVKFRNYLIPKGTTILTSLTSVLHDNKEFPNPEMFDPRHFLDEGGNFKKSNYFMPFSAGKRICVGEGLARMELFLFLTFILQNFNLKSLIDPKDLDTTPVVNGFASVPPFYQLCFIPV
Procedure, shortened: as §2

[7] = biological target: CYP2C9 (Homo sapiens, UniProt P11712); test: as above; conditions: for inhibition at 20 µM: human, pH 7.4
Chain of CYP2C9 (P11712 whole entry): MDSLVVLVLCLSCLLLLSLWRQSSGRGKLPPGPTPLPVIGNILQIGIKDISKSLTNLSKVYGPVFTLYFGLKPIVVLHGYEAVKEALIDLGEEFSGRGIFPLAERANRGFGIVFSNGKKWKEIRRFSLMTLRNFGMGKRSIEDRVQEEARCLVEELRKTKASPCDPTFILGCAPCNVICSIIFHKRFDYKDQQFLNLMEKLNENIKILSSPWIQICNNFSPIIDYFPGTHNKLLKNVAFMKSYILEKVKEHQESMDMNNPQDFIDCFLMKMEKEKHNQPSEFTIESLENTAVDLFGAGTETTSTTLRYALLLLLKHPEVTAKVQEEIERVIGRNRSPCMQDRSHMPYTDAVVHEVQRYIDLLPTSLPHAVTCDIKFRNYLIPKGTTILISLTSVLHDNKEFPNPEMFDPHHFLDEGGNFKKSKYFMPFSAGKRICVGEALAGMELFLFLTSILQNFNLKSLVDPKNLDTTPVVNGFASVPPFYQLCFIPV
Procedure, shortened: as §2

[8] = system: human plasma; conditions: methods UF, ED, EP or not described per compound, ref [6]–[22] of Additional file 1; cited from earlier work
[9] = Caco-2, pH 7.4, A–B Papp, matrix: pH 7.4 buffer
[10] = based on ref 80 and control compounds
[11] = from Caco-2 Papp via calibration plot
[12] = CYP3A4 (midaz) IC50, human liver microsomes, CYP3A4 (midaz), highest concentration tested 20 µM
[13] = CYP3A4 (test) IC50, human liver microsomes, CYP3A4 (test), highest concentration tested 20 µM
[14] = human liver microsomes, at max conc, nmi = no measurable inhibition
[15] = Caco-2, A–B Papp, matrix: human plasma, corrected for fu
[16] = human, microsomes, pH 7.4, CYP3A4 (test) % inhibition at max conc
[17] = human, microsomes, pH 7.4, CYP3A4 (midaz) % inhibition at max conc

| SMILES | A–B Papp [1] | Papp B→A ([2]; Caco-2, pH 7.4) [×10⁻⁶ cm/s] | Papp A→B [2, 9] [×10⁻⁶ cm/s] | solubility [3] [µg/mL] | An (absorption number) ([3]; Peff × tres/R, minimum 1) | SLAD ([3]; Ssi × V (500 mL) × Mp) [mg] | Permeability classification [3, 10] | Predicted human Peff [3, 11] | CYP3A4 (midaz) % inhibition at max conc ([4]; microsomes) | CYP3A4 (test) % inhibition at max conc ([4]; microsomes) | IC50 [5] [µM] | IC50 [6] [µM] | CYP2C19 % inhibition at max conc ([6]; microsomes) | IC50 [7] [µM] | CYP2C9 % inhibition at max conc ([7]; microsomes) | CYP1A2 % inhibition at max conc ([5]; microsomes) | Literature fu [8] | IC50 [4, 13] [µM] | other results |
| --- | --- | --- | --- | --- | --- | --- | --- | --- | --- | --- | --- | --- | --- | --- | --- | --- | --- | --- | --- |
| C[C@H]1[C@H](N2CCS(=O)(=O)CC2)O[C@@H]2O[C@@]3(C)CC[C@H]4[C@H](C)CC[C@@H]1[C@@]24OO3 [Artemisone] | 64.5 10^−6 cm/s | 47 ± 1.7 | 58.8 | 115 (≈ 286 µM) | 6.0 | 345 | High (> 85% absorption (high)) | 5.0 10^−4 cm/s |  |  |  |  |  |  |  |  |  |  | efflux ratio ([2]; Caco-2, pH 7.4): 0.8 |
| C[C@H]1[C@H](OC(=O)CCC(=O)O)O[C@@H]2O[C@@]3(C)CC[C@H]4[C@H](C)CC[C@@H]1[C@@]24OO3 [Artesunate] | 2.9 10^−6 cm/s | 2.8 ± 0.48 | 3.4 | 1690 (≈ 4400 µM) | 1.0 | 845 | Intermediate (50–84% absorption (intermediate)) | 0.66 10^−4 cm/s | nmi | nmi | 20 | > 20 | nmi | > 20 | nmi |  |  |  | IC50 ([4]; human, microsomes, pH 7.4, CYP3A4 (test) IC50): > 20 µM; Ki [5]: 12 µM |
| O=C1C(O)=C([C@H]2CC[C@H](c3ccc(Cl)cc3)CC2)C(=O)c2ccccc21 [Atovaquone] |  |  |  | 1.83 (≈ 4.99 µM) | 13 | 12 | High (> 85% absorption (high)) | 11 10^−4 cm/s | nmi | nmi | > 20 | > 20 | nmi | > 20 |  | nmi | 0.001 |  | inhibition at 20 µM ([7]; microsomes): 26% |
| CC1(C)N=C(N)N=C(N)N1c1ccc(Cl)cc1 [Cycloguanil] | 1.2 ± 0.070 10^−6 cm/s | 0.77 ± 0.05 |  |  |  |  |  |  | nmi | nmi | > 20 | > 20 | nmi | > 20 | nmi | nmi |  | > 20 | IC50 [4, 12]: > 20 µM; A–B Papp ([1]; listed as cycloguanil): < 5 10^−6 cm/s |
| Cc1cc(Nc2ccc(S(F)(F)(F)(F)F)cc2)n2nc(C(C)(F)F)nc2n1 [DSM265] | 69.7 10^−6 cm/s | 49 ± 5.1 | 52.4 |  | 5.7 | 14 | High (> 85% absorption (high)) | 4.8 10^−4 cm/s |  |  |  |  |  |  |  |  |  |  |  |
| C[C@H]1[C@@H](O)O[C@@H]2O[C@@]3(C)CC[C@H]4[C@H](C)CC[C@@H]1[C@@]24OO3 [Dihydroartemisinin] |  | 49 ± 1.2 | 50 ± 2.3 |  | 5.2 | 413 | High (> 85% absorption (high)) | 4.4 10^−4 cm/s | nmi | nmi | 11 | > 20 | nmi | > 20 | nmi |  | 0.092 | > 20 | IC50 [4, 12]: > 20 µM; Ki [5]: 6.2 µM |
| CCCCN(CCCC)CCC(O)c1cc2c(Cl)cc(Cl)cc2c2cc(C(F)(F)F)ccc12 (stereo not drawn) [Halofantrine] |  |  |  | 69.9 (≈ 140 µM) | 13 | 466 | High (> 85% absorption (high)) | 11 10^−4 cm/s |  |  | > 20 | > 20 |  | > 20 |  |  |  |  | inhibition at 20 µM ([4]; human, microsomes, pH 7.4, CYP3A4 (midaz) % inhibition at max conc, human liver microsomes, CYP3A4 (midaz), at max conc, nmi = no measurable inhibition): 24%; inhibition at 20 µM ([4]; human, microsomes, pH 7.4, CYP3A4 (test) % inhibition at max conc, human liver microsomes, CYP3A4 (test), at max conc, nmi = no measurable inhibition): 19%; CYP1A2 % inhibition at max conc [5, 14]: nmi; CYP2C19 % inhibition at max conc [6, 14]: nmi; CYP2C9 % inhibition at max conc [7, 14]: nmi |
| CC1(C)c2nc(-c3ccc(F)cc3)c(Nc3ccc(F)cc3)n2CCN1C(=O)CN [KAF156] |  |  |  | 1600 (≈ 3890 µM) | 3.5 | 2780 | High (> 85% absorption (high)) | 2.9 10^−4 cm/s |  |  |  |  |  |  |  | nmi |  |  | inhibition at 20 µM ([6]; microsomes): 40%; Papp B→A ([2]; Caco-2): 230 ± 17 ×10⁻⁶ cm/s; Papp A→B [2, 15]: 47 ± 7.6 ×10⁻⁶ cm/s |
| CS(=O)(=O)c1ccc(-c2cnc(N)c(-c3ccc(C(F)(F)F)nc3)c2)cc1 [MMV048] |  | 53 ± 1.9 | 41 ± 2.1 | 6.7 (≈ 17 µM) | 4.5 | 15 | High (> 85% absorption (high)) | 3.8 10^−4 cm/s |  | nmi | > 20 | > 20 | nmi | > 20 | nmi | nmi |  | > 20 |  |
| OC(c1cc(C(F)(F)F)nc2c(C(F)(F)F)cccc12)C1CCCCN1 (stereo not drawn) [Mefloquine] |  |  |  | 584 (≈ 1540 µM) |  |  | High (> 85% absorption (high)) |  | nmi |  |  |  |  |  | nmi | nmi | 0.02 |  | inhibition at 20 µM [4, 16]: 29% |
| CC(C)(N)CNC(=O)C[C@H]1CC[C@]2(CC1)OO[C@]1(O2)C2CC3CC(C2)CC1C3 [OZ277, Arterolane] |  |  |  | > 2000 | 3.2 | > 3240 | High (> 85% absorption (high)) | 2.7 10^−4 cm/s |  |  | > 20 | > 20 |  | > 20 |  |  |  | > 20 | IC50 [4, 12]: > 20 µM; inhibition at 20 µM [4, 17]: 26%; inhibition at 20 µM [4, 16]: 46%; CYP1A2 % inhibition at max conc [5, 14]: nmi; Papp B→A ([2]; Caco-2): 70 ± 0.38 ×10⁻⁶ cm/s; Papp A→B [2, 15]: 42 ± 2.8 ×10⁻⁶ cm/s |
| COc1cc(NC(C)CCCN)c2ncccc2c1 (stereo not drawn) [Primaquine] |  | 34 ± 1.5 |  | > 2000 |  |  |  |  |  | nmi |  |  |  |  |  |  | 0.35-0.55 |  | inhibition at 20 µM [4, 17]: 31%; inhibition at 20 µM ([6]; microsomes): 34%; inhibition at 20 µM ([7]; microsomes): 20%; Papp A→B ([2]; Caco-2, pH 7.4): 29 ± 4.5 ×10⁻⁶ cm/s; Permeability classification [3]: High (key: High: > 85% absorption (high); Intermediate: 50–84% absorption (intermediate); Low: < 50% absorption (low)); An (absorption number) ([3]; human): 3.6; Predicted human Peff ([3]; human): 3.0 10^−4 cm/s; SLAD ([3]; human): > 3560 mg |
| CCc1nc(N)nc(N)c1-c1ccc(Cl)cc1 [Pyrimethamine] |  | 59 ± 2.9 |  |  | 5.9 | 326 | High (> 85% absorption (high)) | 4.9 10^−4 cm/s |  |  | > 20 |  | nmi |  | nmi | nmi | 0.088 |  | Papp A→B ([2]; Caco-2, pH 7.4): 60 ± 5.6 ×10⁻⁶ cm/s |
| N#Cc1cc(NC(=O)[C@H]2c3ccccc3C(=O)N(CC(F)(F)F)[C@@H]2c2cccnc2)ccc1F [SJ733] | 13.4 10^−6 cm/s | 50 ± 2 | 14 | 101 (≈ 216 µM) | 2.2 | 109 | High (> 85% absorption (high)) | 1.8 10^−4 cm/s |  |  | > 20 | > 20 |  | > 20 |  | nmi |  | > 20 | IC50 [4, 12]: > 20 µM; inhibition at 20 µM [4, 17]: 33%; inhibition at 20 µM [4, 16]: 37%; inhibition at 20 µM ([6]; microsomes): 38%; inhibition at 20 µM ([7]; microsomes): 33% |
